In brackets after ≈: the same amount, converted by molar mass.
Legend:
[1] = tested on: WiDr; experiment: Photodynamic cytotoxicity against human WiDr cells assessed as cell growth inhibition measured after 24 hrs of 10J light irradiation by flow cytometry; type: functional, cell-based; conditions: light or radiation study
[2] = tested on: WiDr; experiment: Photodynamic cytotoxicity against human WiDr cells assessed as cell growth inhibition measured after 72 hrs of 10J light irradiation by flow cytometry; type: functional, cell-based; conditions: light or radiation study
[3] = tested on: WiDr; experiment: Photodynamic cytotoxicity against human WiDr cells assessed as reduction in cell viability at 50 nM incubated for 24 hrs followed by compound washout and 7.5 mW/cm2 light irradiation measured after 24 hrs by MTT assay relative to control; type: functional
[4] = tested on: WiDr; experiment: Photocytotoxicity against human WiDr cells assessed as lethal dose incubated for 18 hrs followed by replacement of medium containing compound with 48 hrs incubation and subsequent light irradiation of 13.5 mW/cm2 at 435 nm measured after 48 hrs by MTT assay; type: functional; conditions: light or radiation study, read-out: LD50 (the source's name)
[5] = tested on: HT-29; experiment: Photodynamic cytotoxicity against human HT-29 cells assessed as reduction in cell viability incubated for 3 hrs followed by fresh medium replacement and subsequent white LED irradiation measured after 24 hrs by MTT assay relative to control; type: functional
[6] = tested on: HT-29; experiment: Photodynamic cytotoxicity against human HT-29 cells assessed as reduction in cell viability incubated for 3 hrs followed by fresh medium replacement and subsequent blue LED irradiation measured after 24 hrs by MTT assay relative to control; type: functional
[7] = tested on: HT-29; experiment: Photodynamic cytotoxicity against human HT-29 cells assessed as reduction in cell viability incubated for 3 hrs followed by fresh medium replacement and subsequent red LED irradiation measured after 24 hrs by MTT assay relative to control; type: functional
[8] = tested on: HT-29; experiment: Antitumor activity against human HT-29 cells xenografted in BALB/c mouse assessed as tumor growth inhibition at 250 mg/kg, ip followed by LED irradiation with repeated compound irradiation for thrice upto 3 weeks relative to control; type: functional; conditions: HT-29, light or radiation study, 504 h, read-out: TGI
[9] = tested on: HT-29; experiment: Photodynamic cytotoxicity against human HT-29 cells assessed as reduction in cell viability at 19.4 J/cm2 light irradiation followed by immediate fresh medium replacement measured after 24 hrs by MTT assay relative to control; type: functional
[10] = tested on: HT-29; experiment: Photodynamic cytotoxicity against human HT-29 cells assessed as reduction in cell viability at 19.4 J/cm2 light irradiation >570 nm followed by immediate fresh medium replacement measured after 24 hrs by MTT assay relative to control; type: functional
[11] = tested on: HT-29; experiment: Photocytotoxicity against human HT-29 cells assessed as lethal dose incubated for 4 hrs followed by 3 J/cm2 LED irradiation and subsequent compound replenishment measured after 20 hrs by MTT assay; type: functional

Oc1ccc(Br)c(-c2c3nc(c(-c4cc(O)ccc4Br)c4ccc([nH]4)c(-c4cc(O)ccc4Br)c4nc(c(-c5cc(O)ccc5Br)c5ccc2[nH]5)C=C4)C=C3)c1
IC50 [1]: 0.464 µM
IC50 [2]: 0.62 µM

Oc1cccc(-c2c3nc(cc4ccc([nH]4)c(-c4cccc(O)c4)c4nc(cc5ccc2[nH]5)C=C4)C=C3)c1
Activity [3]: >50%

Oc1cccc(-c2c3nc(cc4ccc([nH]4)c(-c4cccc(O)c4I)c4nc(cc5ccc2[nH]5)C=C4)C=C3)c1I
Activity [3]: >50%

O=C(O)c1ccc(-c2c3nc(c(-c4ccc(C(=O)O)cc4)c4ccc([nH]4)c(-c4ccc(C(=O)O)cc4)c4nc(c(-c5ccc(C(=O)O)cc5)c5ccc2[nH]5)C=C4)C=C3)cc1
CC50 [4]: 15 µM

C=CC1=C(C)c2cc3[nH]c(cc4nc(cc5[nH]c(cc1n2)c(C)c5C=C)C(C)=C4CCC(=O)O)c(CCC(=O)O)c3C
Activity [5]: 40%
Activity [6]: 40%
Activity [7]: 20%
inhibition in vivo at 250 mg/kg [8]: 88%

Oc1ccc(-c2c3nc(c(-c4ccc(O)cc4)c4ccc([nH]4)c(-c4ccc(O)cc4)c4nc(c(-c5ccc(O)cc5)c5ccc2[nH]5)C=C4)C=C3)cc1
CC50 [4]: 0.2 µM

C1=Cc2nc1c(-c1ccc3ccccc3n1)c1ccc([nH]1)c(-c1ccc3ccccc3n1)c1nc(c(-c3ccc4ccccc4n3)c3ccc([nH]3)c2-c2ccc3ccccc3n2)C=C1
Activity [9]: 80%
Activity [10]: 10%

Oc1ccc(Br)c(-c2c3nc(cc4ccc([nH]4)c(-c4cc(O)ccc4Br)c4nc(cc5ccc2[nH]5)C=C4)C=C3)c1
Activity [3]: >50%
IC50 [1]: 0.18 µM
IC50 [2]: 0.14 µM

Oc1cc(-c2c3nc(cc4ccc([nH]4)c(-c4ccc(I)c(O)c4)c4nc(cc5ccc2[nH]5)C=C4)C=C3)ccc1I
Activity [3]: >50%

O=S(=O)(O)c1ccc(-c2c3nc(c(-c4ccc(S(=O)(=O)O)cc4)c4ccc([nH]4)c(-c4ccc(S(=O)(=O)O)cc4)c4nc(c(-c5ccc(S(=O)(=O)O)cc5)c5ccc2[nH]5)C=C4)C=C3)cc1
CC50 [4]: 100 µM

C[N+](C)(C)c1ccc(-c2c3nc(c(-c4ccc([N+](C)(C)C)cc4)c4ccc([nH]4)c(-c4ccc([N+](C)(C)C)cc4)c4nc(c(-c5ccc([N+](C)(C)C)cc5)c5ccc2[nH]5)C=C4)C=C3)cc1
CC50 [4]: 2 µM

Oc1ccc(Cl)c(-c2c3nc(cc4ccc([nH]4)c(-c4cc(O)ccc4Cl)c4nc(cc5ccc2[nH]5)C=C4)C=C3)c1
Activity [3]: >50%

Oc1cccc(-c2c3nc(c(-c4cccc(O)c4)c4ccc([nH]4)c(-c4cccc(O)c4)c4nc(c(-c5cccc(O)c5)c5ccc2[nH]5)CC4)C=C3)c1 [TEMOPORFIN]
LD70 [11]: 0.6 µg/mL
CC50 ([11]; Homo sapiens, HT-29, light or radiation study, read-out: LD50 (the source's name)): 0.3 µg/mL (≈ 0.441 µM)
